Patent US10472341B2, “Bicyclic tetrahydrothiazepine derivatives useful for the treatment of neoplastic and/or infectious diseases” (APEIRON BIOLOGICS AG, priority 2015, dated 2019)
Where two headings read alike, the source gives them in different places.

How the values were obtained:
[1] = system: aCD3/aCD28-stimulated human PBMCs; assay: Cytokine production in aCD3/aCD28 stimulated human PBMCs; type: cell-based; conditions: PBMC, 18 h
Procedure, shortened: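 Compound effects measured in buffy-coat PBMCs activated 18 h at 37° C by 1 μg/mL each of soluble anti-CD3 (OKT3) and anti-CD28 (28.2), 1e6 cells/mL. Cytokines in harvested supernatants read by MSD or HTRF.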

[2] = system: aCD3/aCD28-stimulated human CD4+-T-cells; assay: IL-2 production and activation markers in aCD3/aCD28 stimulated isolated human CD4+-T-cells; type: cell-based; conditions: IL-2 production at 3 μM compound
Procedure, shortened: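 CD4+ T cells isolated from buffy-coat PBMCs by microbeads were plated in Xvivo medium (1.5*10^5 cells/well) and stimulated with anti-CD3/28 mAbs plus compound. IL-2 measured by ELISA in supernatants at 24 h or 48 h; CD25 and proliferation by flow cytometry, CD69 at 24 h. Activity classes based on IL-2 at 3 μM compound.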

[3] = enhancement of IFN-γ production, read-out: Activity Class IFN-γ
[4] = enhancement of IL-2 production, read-out: Activity Class IL-2

| SMILES | EC50 [1, 3] | EC50 [1, 4] | Activity Class CD4+ [2] |
| --- | --- | --- | --- |
| COc1ccc([C@@H](C)NC(=O)c2ccc3c(c2)N(Cc2ccc(Cl)cc2)C(=O)[C@@H](N)CS3)cc1 [Example 27, (3R)-3-amino-5-[(4-chlorophenyl)methyl]-N-[(1R)-1-(4-methoxyphenyl)ethyl]-4-oxo-2,3,4,5-tetrahydro-1,5-benzothiazepine-7-carboxamide] | < 1580 nM | 1580 to 5010 nM | B (IL-2 production at 3 μM compound concentration between 2-10 ng/mL) |
| Cl.N[C@H]1CSc2ccc(C(=O)NCCCC(F)(F)F)cc2N(Cc2ccc(C(F)(F)F)nc2)C1=O [Example 36, (3R)-3-amino-4-oxo-N-(4,4,4-trifluorobutyl)-5-{[6-(trifluoromethyl)pyridin-3-yl]methyl}-2,3,4,5-tetrahydro-1,5-benzothiazepine-7-carboxamide hydrochloride] | < 1580 nM | > 5010 nM | C (IL-2 production at 3 μM compound concentration between 2-fold increase as compared to mean IL-2 production of stimulated cells in the absence of compounds and <2 ng/mL) |
| CCCCCCCCCCCCCCCCNC(=O)c1cc2c(cc1F)S(=O)(=O)C[C@H](N)C(=O)N2Cc1ccc(Cl)cc1.Cl [Example 109, (3R)-3-amino-5-[(4-chlorophenyl)methyl]-8-fluoro-N-hexadecyl-1,1,4-trioxo-2,3,4,5-tetrahydro-1λ^6,5-benzothiazepine-7-carboxamide hydrochloride] | < 1580 nM | < 1580 nM | A (IL-2 production at 3 μM compound concentration >10 ng/mL) |
| Cl.N[C@H]1CS(=O)(=O)c2cc(F)c(C(=O)NC3CCC3)cc2N(Cc2ccc(Cl)cc2)C1=O [Example 86, (3R)-3-amino-5-[(4-chlorophenyl)methyl]-N-cyclobutyl-8-fluoro-1,1,4-trioxo-2,3,4,5-tetrahydro-1λ^6,5-benzothiazepine-7-carboxamide hydrochloride] | < 1580 nM | 1580 to 5010 nM | B (IL-2 production at 3 μM compound concentration between 2-10 ng/mL) |
| CCCCNC(=O)c1cc2c(cc1F)SC[C@H](N)C(=O)N2Cc1ccc(OC(F)(F)F)cc1.Cl [Example 5, (3R)-3-amino-N-butyl-8-fluoro-4-oxo-5-{[4-(trifluoromethoxy)phenyl]methyl}-2,3,4,5-tetrahydro-1,5-benzothiazepine-7-carboxamide hydrochloride] | 1580 to 5010 nM | > 5010 nM | B (IL-2 production at 3 μM compound concentration between 2-10 ng/mL) |
| CCCCNC(=O)c1ccc2c(c1)N(Cc1ccc(-n3cncn3)cc1)C(=O)[C@@H](N)CS2.Cl [Example 46, (3R)-3-amino-N-butyl-4-oxo-5-{[4-(1H-1,2,4-triazol-1-yl)phenyl]methyl}-2,3,4,5-tetrahydro-1,5-benzothiazepine-7-carboxamide hydrochloride] | 1580 to 5010 nM | > 5010 nM | C (IL-2 production at 3 μM compound concentration between 2-fold increase as compared to mean IL-2 production of stimulated cells in the absence of compounds and <2 ng/mL) |
| CC1(C)CC1NC(=O)c1cc2c(cc1F)S(=O)(=O)C[C@H](N)C(=O)N2Cc1ccc(Cl)cc1.Cl (stereo partly drawn) [Example 101, (3R)-3-amino-5-[(4-chlorophenyl)methyl]-N-(2,2-dimethylcyclopropyl)-8-fluoro-1,1,4-trioxo-2,3,4,5-tetrahydro-1λ^6,5-benzothiazepine-7-carboxamide hydrochloride] | < 1580 nM | 1580 to 5010 nM | B (IL-2 production at 3 μM compound concentration between 2-10 ng/mL) |
| CC(C)(O)CNC(=O)c1cc2c(cc1F)SC[C@H](N)C(=O)N2Cc1ccc(Cl)cc1 [Example 50, (3R)-3-amino-5-[(4-chlorophenyl)methyl]-8-fluoro-N-(2-hydroxy-2-methylpropyl)-4-oxo-2,3,4,5-tetrahydro-1,5-benzothiazepine-7-carboxamide] | 1580 to 5010 nM | > 5010 nM | C (IL-2 production at 3 μM compound concentration between 2-fold increase as compared to mean IL-2 production of stimulated cells in the absence of compounds and <2 ng/mL) |
| C=CCCNC(=O)c1ccc2c(c1)N(Cc1ccc(Cl)cc1)C(=O)[C@@H](N)CS2(=O)=O.Cl [Example 84, (3R)-3-amino-N-(but-3-en-1-yl)-5-[(4-chlorophenyl)methyl]-1,1,4-trioxo-2,3,4,5-tetrahydro-1λ^6,5-benzothiazepine-7-carboxamide hydrochloride] | < 1580 nM | 1580 to 5010 nM | B (IL-2 production at 3 μM compound concentration between 2-10 ng/mL) |
| C=CCCNC(=O)c1ccc2c(c1)N(Cc1ccc(Cl)cc1)C(=O)[C@@H](N)CS2.Cl [Example 64, (3R)-3-amino-N-(but-3-en-1-yl)-5-[(4-chlorophenyl)methyl]-4-oxo-2,3,4,5-tetrahydro-1,5-benzothiazepine-7-carboxamide hydrochloride] | 1580 to 5010 nM | > 5010 nM | C (IL-2 production at 3 μM compound concentration between 2-fold increase as compared to mean IL-2 production of stimulated cells in the absence of compounds and <2 ng/mL) |
| Cl.N[C@H]1CS(=O)(=O)c2cc(F)c(C(=O)NCc3ccccc3)cc2N(Cc2ccc(Cl)cc2)C1=O [Example 103, (3R)-3-amino-N-benzyl-5-[(4-chlorophenyl)methyl]-8-fluoro-1,1,4-trioxo-2,3,4,5-tetrahydro-1λ^6,5-benzothiazepine-7-carboxamide hydrochloride] | < 1580 nM | < 1580 nM | A (IL-2 production at 3 μM compound concentration >10 ng/mL) |
| Cl.N[C@H]1CSc2ccc(C(=O)NCc3ccc(F)cc3)cc2N(Cc2ccc(Cl)cc2)C1=O [Example 26, (3R)-3-amino-5-[(4-chlorophenyl)methyl]-N-[(4-fluorophenyl)methyl]-4-oxo-2,3,4,5-tetrahydro-1,5-benzothiazepine-7-carboxamide hydrochloride] | < 1580 nM | 1580 to 5010 nM | B (IL-2 production at 3 μM compound concentration between 2-10 ng/mL) |
| CC(C)NC(=O)c1cc2c(cc1F)S(=O)(=O)C[C@H](N)C(=O)N2Cc1ccc(Cl)cc1F.Cl [Example 87, (3R)-3-amino-5-[(4-chloro-2-fluorophenyl)methyl]-8-fluoro-1,1,4-trioxo-N-(propan-2-yl)-2,3,4,5-tetrahydro-1λ^6,5-benzothiazepine-7-carboxamide hydrochloride] | > 5010 nM | > 5010 nM | C (IL-2 production at 3 μM compound concentration between 2-fold increase as compared to mean IL-2 production of stimulated cells in the absence of compounds and <2 ng/mL) |
| CC1(NC(=O)c2cc3c(cc2F)S(=O)(=O)C[C@H](N)C(=O)N3Cc2ccc(Cl)cc2)CCC1.Cl [Example 100, (3R)-3-amino-5-[(4-chlorophenyl)methyl]-8-fluoro-N-(1-methylcyclobutyl)-1,1,4-trioxo-2,3,4,5-tetrahydro-1λ^6,5-benzothiazepine-7-carboxamide hydrochloride] | < 1580 nM | < 1580 nM | A (IL-2 production at 3 μM compound concentration >10 ng/mL) |
| Cl.N[C@H]1CSc2ccc(C(=O)NCc3ccccc3)cc2N(Cc2ccc(OC(F)(F)F)cc2)C1=O [Example 6, (3R)-3-amino-N-benzyl-4-oxo-5-{[4-(trifluoromethoxy)phenyl]methyl}-2,3,4,5-tetrahydro-1,5-benzothiazepine-7-carboxamide hydrochloride] | < 1580 nM | 1580 to 5010 nM | B (IL-2 production at 3 μM compound concentration between 2-10 ng/mL) |
| Cl.N[C@H]1CS(=O)(=O)c2cc(F)c(C(=O)NCCC(F)(F)F)cc2N(Cc2ccc(Cl)cc2)C1=O [Example 93, (3R)-3-amino-5-[(4-chlorophenyl)methyl]-8-fluoro-1,1,4-trioxo-N-(3,3,3-trifluoro-propyl)-2,3,4,5-tetrahydro-1λ^6,5-benzothiazepine-7-carboxamide hydrochloride] | 1580 to 5010 nM | < 1580 nM | A (IL-2 production at 3 μM compound concentration >10 ng/mL) |
| CCCCNC(=O)c1cc2c(cc1F)SC[C@H](N)C(=O)N2Cc1ccc(Cl)cc1.Cl [Example 41, (3R)-3-amino-N-butyl-5-[(4-chlorophenyl)methyl]-8-fluoro-4-oxo-2,3,4,5-tetrahydro-1,5-benzothiazepine-7-carboxamide hydrochloride] | < 1580 nM | 1580 to 5010 nM | C (IL-2 production at 3 μM compound concentration between 2-fold increase as compared to mean IL-2 production of stimulated cells in the absence of compounds and <2 ng/mL) |
| Cl.N[C@H]1CSc2ccc(C(=O)NCc3ccc(F)cc3)cc2N(Cc2ccc(OC(F)(F)F)cc2)C1=O [Example 31, (3R)-3-amino-N-[(4-fluorophenyl)methyl]-4-oxo-5-{[4-(trifluoromethoxy)phenyl]-methyl}-2,3,4,5-tetrahydro-1,5-benzothiazepine-7-carboxamide hydrochloride] | < 1580 nM | < 1580 nM | B (IL-2 production at 3 μM compound concentration between 2-10 ng/mL) |
| CC(C)CNNC(=O)c1cc2c(cc1F)SC[C@H](N)C(=O)N2Cc1ccc(Cl)cc1.Cl [Example 60, (3R)-3-amino-5-[(4-chlorophenyl)methyl]-8-fluoro-N′-(2-methylpropyl)-4-oxo-2,3,4,5-tetrahydro-1,5-benzothiazepine-7-carbohydrazide hydrochloride] | < 1580 nM | 1580 to 5010 nM | C (IL-2 production at 3 μM compound concentration between 2-fold increase as compared to mean IL-2 production of stimulated cells in the absence of compounds and <2 ng/mL) |
